This note sets out measurements from patent US8461205B2, “Anthranilic acid derivatives” (Chelsea Therapeutics, Inc., priority 2007, dated 2013).

Series [1] deals with human T lymphoblast cell line (Jurkat). The experiment in a line: Inhibition of T-cell proliferation (Jurkat, 3H-TdR incorporation). Type of series: cell-based. The conditions noted are these: for IC50: Homo sapiens, Jurkat cells, 3 days culture, 3H-TdR pulse last 4 hours. The protocol:
Inhibition of T cell proliferation was studied in a functional assay. A human T lymphoblast cell line (Jurkat) was cultured in the presence and absence, respectively, of DHODH inhibiting compounds. Jurkat cells were seeded in microtiterplates at a concentration of 5×10^5/mL in RPMI 1640 growth media supplemented with ultraglutamin, 10% fetal calf serum, 1 mM sodium pyruvat, 10 mM HEPES and 0.1 mg/mL gentamycin. A dilution series of ten different concentrations of inhibitor was added to the wells and the plates were kept in a cell incubator for 3 days. At the beginning of the last 4 hours period, the cultures were pulsed with 10 μl/well 0.1 Ci/mmol 3H-TdR and then harvested on filter papers and counted with a ([…]. The IC50 values for each compound were calculated from the obtained dose response curves. Adding uridine to a concentration of about 50 μM in the wells monitored the specificity for the mechanism i.e., the inhibition of cell proliferation is due to DHODH inhibition and not to a general cell toxicity of the compounds. This addition of uridine reverses the anti-proliferative effect by bypassing the DHODH enzyme using an external source of pyrimidine. Results in respect of a number of compounds of the invention are reported as Jurkat IC50 (in μM) in Table 1.
(§1) The inhibition of T cell proliferation was studied in a human T lymphoblast cell line (Jurkat). The IC50 value for each compound was calculated from the dose response curve. Adding uridine was used to monitor the specificity of the DHODH mechanism. The metabolic stability was studied in human liver microsomes. Table 1 exemplifies the invention, without limiting the scope thereof.

The nature of series [2]: Metabolic stability in human liver microsomes. Type of series: in vitro ADME. The settings on record: human liver microsomes, 0.5 μM compound, 1 mg/mL protein, 1 mM NADPH, pH 7.4, 37° C.; "stable" = no degradation could be confirmed. As to the method: The metabolic stability of the test compounds was determined using human liver microsomes. Incubations were performed with a compound concentration of 0.5 μM and a protein concentration of 1 mg/mL in 50 mM sodium phosphate buffer at physiological pH (7.4) and temperature (37° C.). The incubation mixture was preincubated at 37° C. prior to addition of NADPH (1 mM, final concentration). At several time points during 60 minutes, aliquots were removed and added to a 96 well plate placed on dry ice and deep-frozen. Samples were analyzed with LC-MS for concentration of parent compound. From the slope of the log [parent compound] vs. incubation time regression line, the in vitro half-life […] was determined. The intrinsic clearance (CLint) can be calculated using a modified Michaelis-Menten relationship, i.e., CLint=ln 2/t1/2. The CLint can then be converted to CL by using the well-stirred model of hepatic extraction. A value of 1.24 L/h/kg of the hepatic blood flow in man can be used. Results with respect to a number of compounds of the invention are reported as t1/2 (in minutes) in Table 1.
as §1

`CCC(=O)Nc1ccc(COc2ccc(C(F)(F)F)cc2C(F)(F)F)cc1C(=O)O` [INV 1, 5-(2,4-Bis-trifluoromethyl-phenoxymethyl)-2-propionylamino-benzoic acid] registered an IC50 in series [1] of 600 nM. In series [2], the t1/2 result is “stable”. In series [1], `CCC(=O)Nc1ccc(COc2ccc(F)cc2C(F)(F)F)cc1C(=O)O` [INV 2, 5-(4-Fluoro-2-trifluoromethyl-phenoxymethyl)-2-propionylamino-benzoic acid] gave an IC50 of 580 nM. The half-life at 0.5 μM in series [2] was determined as 3.93 h. In series [1], `CCC(=O)Nc1ccc(COc2ccc(Br)cc2C(F)(F)F)cc1C(=O)O` [INV 3, 5-(4-Bromo-2-trifluoromethyl-phenoxymethyl)-2-propionylamino-benzoic acid] came in with an IC50 of 470 nM. Further, the half-life at 0.5 μM in series [2] turned out to be 3.9 h. `CCC(=O)Nc1ccc(COc2ccc(C(F)(F)F)cc2Cl)cc1C(=O)O` [INV 4, 5-(2-Chloro-4-trifluoromethyl-phenoxymethyl)-2-propionylamino-benzoic acid]: the IC50 in series [1] amounted to 420 nM. In series [2], the t1/2 result is “stable”.

Turning to `CCC(=O)Nc1ccc(COc2ccc(F)cc2Cl)cc1C(=O)O` [INV 5, 5-(2-Chloro-4-fluoro-phenoxymethyl)-2-propionylamino-benzoic acid], 190 nM corresponded to half-maximal inhibition in series [1] (IC50). Also, in series [2], the half-life at 0.5 μM came to 5.38 h. `CCC(=O)Nc1ccc(COc2ccc(Cl)cc2Cl)cc1C(=O)O` [INV 6, 5-(2,4-Dichloro-phenoxymethyl)-2-propionylamino-benzoic acid]: in series [1], 350 nM corresponded to half-maximal inhibition (IC50). Besides, in series [2], the half-life at 0.5 μM was found to be 3.32 h.

`CCC(=O)Nc1ccc(COc2ccc(C(F)(F)F)cc2Br)cc1C(=O)O` [INV 7, 5-(2-Bromo-4-trifluoromethyl-phenoxymethyl)-2-propionylamino-benzoic acid]: inhibition in series [1] was half-maximal at 490 nM (IC50). In addition, the half-life at 0.5 μM in series [2] stood at 6.8 h. The matching figures for `CCC(=O)Nc1ccc(COc2ccc(F)cc2Br)cc1C(=O)O` [INV 8, 5-(2-Bromo-4-fluoro-phenoxymethyl)-2-propionylamino-benzoic acid]: 360 nM and 5.33 h. Taken in the same sequence, the figures for `CCC(=O)Nc1ccc(COc2ccc(Cl)cc2Br)cc1C(=O)O` [INV 9, 5-(2-Bromo-4-chloro-phenoxymethyl)-2-propionylamino-benzoic acid] were 240 nM and 2.8 h. For the compound `CCC(=O)Nc1ccc(COc2ccc(OC(F)(F)F)cc2Cl)cc1C(=O)O` [INV 10, 5-(2-Chloro-4-trifluoromethoxy-phenoxymethyl)-2-propionylamino-benzoic acid], the IC50 in series [1] turned out to be 240 nM. The t1/2 entry in series [2] is “stable”. For `CCC(=O)Nc1ccc(/C=C/c2ccc(C(F)(F)F)cc2C(F)(F)F)cc1C(=O)O` [INV 11, 5-[(E)-2-(2,4-Bis-trifluoromethyl-phenyl)-vinyl]-2-propionylamino-benzoic acid], the IC50 in series [1] came to 90 nM. The half-life at 0.5 μM in series [2] was found to be 8.15 h. The compound `CCC(=O)Nc1ccc(/C=C/c2ccc(F)cc2C(F)(F)F)cc1C(=O)O` [INV 12, 5-[(E)-2-(4-Fluoro-2-trifluoromethyl-phenyl)-vinyl]-2-propionylamino-benzoic acid] had an IC50 in series [1] of 160 nM. The half-life at 0.5 μM in series [2] is 2.65 h. The matching figures for `CCC(=O)Nc1ccc(/C=C/c2ccc(Cl)cc2C(F)(F)F)cc1C(=O)O` [INV 13, 5-[(E)-2-(4-Chloro-2-trifluoromethyl-phenyl)-vinyl]-2-propionylamino-benzoic acid]: 50 nM and 1.75 h.

Take `CCC(=O)Nc1ccc(/C=C/c2ccc(F)cc2F)cc1C(=O)O` [INV 14, 5-[(E)-2-(2,4-Difluoro-phenyl)-vinyl]-2-propionylamino-benzoic acid]: the IC50 in series [1] was found to be 240 nM. Also, in series [2], the half-life at 0.5 μM turned out to be 3.55 h. Taken in the same sequence, the figures for `CCC(=O)Nc1ccc(/C=C/c2ccc(F)cc2Cl)cc1C(=O)O` [INV 15, 5-[(E)-2-(2-Chloro-4-fluoro-phenyl)-vinyl]-2-propionylamino-benzoic acid] were 35 nM and 2.28 h. The matching figures for `CCC(=O)Nc1ccc(/C=C/c2ccc(Cl)cc2Cl)cc1C(=O)O` [INV 16, 5-[(E)-2-(2,4-Dichloro-phenyl)-vinyl]-2-propionylamino-benzoic acid]: 20 nM and 1.83 h. The matching figures for `CCC(=O)Nc1ccc(COc2ccc(F)c(C(F)(F)F)c2)cc1C(=O)O` [INV 17, 5-(4-Fluoro-3-trifluoromethyl-phenoxymethyl)-2-propionylamino-benzoic acid]: 530 nM and 1.73 h.

Regarding `CCC(=O)Nc1ccc(COc2ccc(Cl)c(C(F)(F)F)c2)cc1C(=O)O` [INV 18, 5-(4-Chloro-3-trifluoromethyl-phenoxymethyl)-2-propionylamino-benzoic acid], in series [1], it took 840 nM to reach half-maximal inhibition (IC50). The half-life at 0.5 μM in series [2] came out at 7.73 h.

For `CCC(=O)Nc1ccc(COc2ccc(F)c(Cl)c2)cc1C(=O)O` [INV 19, 5-(3-Chloro-4-fluoro-phenoxymethyl)-2-propionylamino-benzoic acid], the IC50 in series [1] turned out to be 420 nM. The half-life at 0.5 μM in series [2] is 1.18 h. Taken in the same sequence, the figures for `CCC(=O)Nc1ccc(COc2ccc(Br)c(Cl)c2)cc1C(=O)O` [INV 20, 5-(4-Bromo-3-chloro-phenoxymethyl)-2-propionylamino-benzoic acid] were 730 nM and 1.2 h. Taken in the same sequence, the figures for `CCC(=O)Nc1ccc(COc2ccc(OC(F)(F)F)c(Cl)c2)cc1C(=O)O` [INV 21, 5-(3-Chloro-4-trifluoromethoxy-phenoxymethyl)-2-propionylamino-benzoic acid] were 890 nM and 2.8 h. The matching figures for `CCC(=O)Nc1ccc(COc2ccc(OC(F)(F)F)c(Br)c2)cc1C(=O)O` [INV 22, 5-(3-Bromo-4-trifluoromethoxy-phenoxymethyl)-2-propionylamino-benzoic acid]: 710 nM and 3.3 h. For the compound `CCC(=O)Nc1ccc(/C=C/c2ccc(F)c(C(F)(F)F)c2)cc1C(=O)O` [INV 23, 5-[(E)-2-(4-Fluoro-3-trifluoromethyl-phenyl)-vinyl]-2-propionylamino-benzoic acid], inhibition in series [1] was half-maximal at 750 nM (IC50). The half-life at 0.5 μM in series [2] worked out at 2.45 h. The matching figures for `CCC(=O)Nc1ccc(/C=C/c2ccc(Cl)c(C(F)(F)F)c2)cc1C(=O)O` [INV 24, 5-[(E)-2-(4-Chloro-3-trifluoromethyl-phenyl)-vinyl]-2-propionylamino-benzoic acid]: 570 nM and 5.75 h. The compound `CCC(=O)Nc1ccc(/C=C/c2ccc(C(F)(F)F)c(F)c2)cc1C(=O)O` [INV 25, 5-[(E)-2-(3-Fluoro-4-trifluoromethyl-phenyl)-vinyl]-2-propionylamino-benzoic acid] registered an IC50 in series [1] of 740 nM. The t1/2 result in series [2] is “stable”.

In series [1], `CCC(=O)Nc1ccc(/C=C/c2ccc(F)c(Cl)c2)cc1C(=O)O` [INV 26, 5-[(E)-2-(3-Chloro-4-fluoro-phenyl)-vinyl]-2-propionylamino-benzoic acid] came in with an IC50 of 750 nM. Besides, the half-life at 0.5 μM in series [2] is 1.22 h. For `CCC(=O)Nc1ccc(/C=C/c2ccc(Cl)c(Cl)c2)cc1C(=O)O` [INV 27, 5-[(E)-2-(3,4-Dichloro-phenyl)-vinyl]-2-propionylamino-benzoic acid], in series [1], the IC50 worked out at 480 nM. Also, in series [2], the half-life at 0.5 μM worked out at 1.92 h.

As for `CCC(=O)Nc1ccc(/C=C/c2ccc(OC(F)(F)F)c(Cl)c2)cc1C(=O)O` [INV 28, 5-[(E)-2-(3-Chloro-4-trifluoromethoxy-phenyl)-vinyl]-2-propionylamino-benzoic acid], in series [1], half-maximal inhibition (IC50) required 600 nM. `COc1ccc(OC)c(CCc2ccc(NC(C)=O)c(C(=O)O)c2)c1` [REF 9, 2-acetylamino-5-[2-(2,5-dimethoxy-phenyl)-ethyl]-benzoic acid, reference compound]: the IC50 in series [1] was 12000 nM. In addition, the “inhibitory effect on T-cell proliferation (in words)” value in series [1] (Jurkat, cf. Table 1) is reported as “very weak inhibitory effect”.

In the case of `CCC(=O)Nc1ccc(OCc2ccccc2C(F)(F)F)cc1C(=O)OC` [REF 10, 2-Propionylamino-5-(2-trifluoromethyl-benzyloxy)-benzoic acid methyl ester, reference compound], 12300 nM corresponded to half-maximal inhibition in series [1] (IC50).
